Data as given in PubChem BioAssay AID330 (DTP/NCI, 2004).
Values joined by “and” are separate entries in the source; they are usually repeats but may differ in a detail not shown here. Equal entries are not always repeated. Inconclusive results and toxic doses are left out. How the source made its calls: active means survival T/C of 150% or more; inactive means T/C below 125% in these data.

System: P388 leukemia ip, CD2F1 mice, survival T/C
Experiment: NCI In Vivo Anticancer Drug Screen. Data for tumor model P388 Leukemia (intraperitoneal) in CD2F1 (CDF1) mice
Details: endpoint: median survival time, higher = longer survival
How it was run: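 Mice carrying the transplanted tumor received test compound or vehicle. Survival was recorded in each group, and the value is the treated-group measurement divided by that of the vehicle-treated control group.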

[1] = dose: 50.0 mg/kg/injection, schedule: Q01DX009 (ip), vehicle: Klucel (hydroxypropylcellulose) (HPC)
[2] = dose: 100.0 mg/kg/injection, schedule: Q01DX009 (ip), vehicle: Klucel (hydroxypropylcellulose) (HPC)
[3] = dose: 200.0 mg/kg/injection, schedule: Q01DX009 (ip), vehicle: Klucel (hydroxypropylcellulose) (HPC)
[4] = dose: 100.0 mg/kg/injection, schedule: Q04DX002 (ip), vehicle: saline
[5] = dose: 200.0 mg/kg/injection, schedule: Q04DX002 (ip), vehicle: saline
[6] = dose: 25.0 mg/kg/injection, schedule: Q01DX009 (ip), vehicle: saline with Tween-80
[7] = dose: 50.0 mg/kg/injection, schedule: Q01DX009 (ip), vehicle: saline with Tween-80
[8] = dose: 100.0 mg/kg/injection, schedule: Q01DX009 (ip), vehicle: saline with Tween-80
[9] = dose: 200.0 mg/kg/injection, schedule: Q01DX009 (ip), vehicle: saline with Tween-80

Measured: T/C

ClC1CCC[N-]C1.ClC1CCC[N-]C1.[Cl][Pt+2][Cl] (stereo not given)
inactive: dose: 0.78 mg/kg/injection, schedule: Q01DX009 (ip), vehicle: saline 97 % of control | dose: 1.56 mg/kg/injection, schedule: Q01DX009 (ip), vehicle: saline 97 % of control | dose: 3.13 mg/kg/injection, schedule: Q01DX009 (ip), vehicle: saline 101 % of control | dose: 6.25 mg/kg/injection, schedule: Q01DX009 (ip), vehicle: saline 96 % of control | dose: 12.5 mg/kg/injection, schedule: Q01DX009 (ip), vehicle: Klucel (hydroxypropylcellulose) (HPC) 118 % of control and 123 % of control | dose: 12.5 mg/kg/injection, schedule: Q01DX009 (ip), vehicle: saline 108 % of control | dose: 25.0 mg/kg/injection, schedule: Q01DX009 (ip), vehicle: Klucel (hydroxypropylcellulose) (HPC) 121 % of control | [1] 101 % of control and 122 % of control

CCCCCCCC[N+]1([O-])CC[N+](C)([O-])CC1 (stereo not given)
inactive: dose: 60.0 mg/kg/injection, schedule: Q01DX005 (ip), vehicle: saline 100 % of control | dose: 120.0 mg/kg/injection, schedule: Q01DX005 (ip), vehicle: saline 101 % of control | dose: 240.0 mg/kg/injection, schedule: Q01DX005 (ip), vehicle: saline 102 % of control

N#Cc1cc(Cl)ccc1N=Cc1c(Cl)cccc1Cl
inactive: [1] 100 % of control | [2] 105 % of control | [3] 100 % of control

COc1cccc(N(CCO)C2CCCCC2)c1
inactive: dose: 100.0 mg/kg/injection, schedule: Q04DX003 (ip), vehicle: saline with Tween-80 100 % of control | dose: 200.0 mg/kg/injection, schedule: Q04DX003 (ip), vehicle: saline with Tween-80 90 % of control | dose: 400.0 mg/kg/injection, schedule: Q04DX003 (ip), vehicle: saline with Tween-80 88 % of control

Cc1ccc(S(=O)(=O)C(CC(=O)CCN(C)C)c2ccccc2)cc1 (stereo not given)
inactive: dose: 25.0 mg/kg/injection, schedule: Q04DX002 (ip), vehicle: saline 100 % of control | dose: 50.0 mg/kg/injection, schedule: Q01DX009 (ip), vehicle: saline 96 % of control | dose: 50.0 mg/kg/injection, schedule: Q04DX002 (ip), vehicle: saline 103 % of control and 95 % of control | dose: 100.0 mg/kg/injection, schedule: Q01DX009 (ip), vehicle: saline 102 % of control | [4] 100 % of control | [5] 100 % of control

CCOP(=S)(N/N=C/c1ccc(C)s1)OCC
inactive: dose: 50.0 mg/kg/injection, schedule: Q01DX005 (ip), vehicle: Klucel (hydroxypropylcellulose) (HPC) 110 % of control | dose: 100.0 mg/kg/injection, schedule: Q01DX005 (ip), vehicle: Klucel (hydroxypropylcellulose) (HPC) 112 % of control | dose: 200.0 mg/kg/injection, schedule: Q01DX005 (ip), vehicle: Klucel (hydroxypropylcellulose) (HPC) 117 % of control

C[C@]12CC[C@@H]3c4cc(N)c(O)cc4CC[C@H]3[C@@H]1CC[C@@H]2O
inactive: dose: 50.0 mg/kg/injection, schedule: Q01DX005 (ip), vehicle: saline with Tween-80 100 % of control | dose: 100.0 mg/kg/injection, schedule: Q01DX005 (ip), vehicle: saline with Tween-80 103 % of control | dose: 200.0 mg/kg/injection, schedule: Q01DX005 (ip), vehicle: saline with Tween-80 100 % of control

COc1ccc(Cl)cc1NC(=O)c1ccccc1F
inactive: [1] 120 % of control | [2] 104 % of control | [3] 118 % of control

CC1(C)CC(=O)C=C(NCc2ccccc2)C1
inactive: [6] 104 % of control | [7] 104 % of control and 90 % of control | [8] 101 % of control and 96 % of control | [9] 99 % of control and 91 % of control

CCOc1ccnc2c(C)c3c([nH]c4ccccc43)c(C)c12
inactive: dose: 100.0 mg/kg/injection, schedule: Q04DX002 (ip), vehicle: saline with Tween-80 98 % of control | dose: 200.0 mg/kg/injection, schedule: Q04DX002 (ip), vehicle: saline with Tween-80 94 % of control | dose: 400.0 mg/kg/injection, schedule: Q04DX002 (ip), vehicle: saline with Tween-80 96 % of control

[O-]c1nn(Cc2ccccc2)c2cccc[n+]12
inactive: [4] 103 % of control | [5] 99 % of control | dose: 400.0 mg/kg/injection, schedule: Q04DX002 (ip), vehicle: saline 100 % of control

COc1ccc2c(c1OC)C(=O)O[C@@H]2[C@H]1c2c(cc3c(c2OC)OCO3)CCN1C
inactive: dose: 62.5 mg/kg/injection, schedule: Q01DX010 (ip), vehicle: saline 100 % of control | dose: 125.0 mg/kg/injection, schedule: Q01DX010 (ip), vehicle: saline 95 % of control

C=C1C(=O)O[C@H]2C[C@@H]1C(=O)C/C(C)=C/CC/C(C)=C/CC[C@@]2(C)OCSC
inactive: dose: 8.0 mg/kg/injection, schedule: Q01DX009 (ip), vehicle: Klucel (hydroxypropylcellulose) (HPC) 116 % of control | dose: 16.0 mg/kg/injection, schedule: Q01DX009 (ip), vehicle: Klucel (hydroxypropylcellulose) (HPC) 103 % of control | dose: 32.0 mg/kg/injection, schedule: Q01DX009 (ip), vehicle: Klucel (hydroxypropylcellulose) (HPC) 111 % of control | dose: 64.0 mg/kg/injection, schedule: Q01DX009 (ip), vehicle: Klucel (hydroxypropylcellulose) (HPC) 92 % of control

O=C1C(=O)c2ccccc2C(O)=C1CCCc1ccc(C2CCCCCC2)cc1
inactive: [6] 86 % of control | [7] 88 % of control | [8] 89 % of control | [9] 95 % of control

O=c1[nH]c(=O)n2c(c1-c1ccccc1)OC(CBr)C2 (stereo not given)
inactive: [7] 98 % of control | [8] 98 % of control | [9] 86 % of control
